# Data as given in patent US20060106064A1, “Butyrophenones and sigma-1 receptor antagonists protect against oxidative-stress” (University of North Texas Health Science Center at Fort …, priority 2004, published 2006).
# Entries after “also recorded” stand apart in the source; their conditions may differ. Like-named read-outs stand apart in the source and are kept apart here.
# Tests used:
# [1] = tested on: HT-22 cells; assay: in vitro protection assay, glutamate-induced oxidative stress HT-22 cell model (Calcein AM cell survival)
# [2] = biological target: T1, human Sigma-1 receptor (Homo sapiens, UniProt Q99720); assay: [3H]-(+)-pentazocine binding to MCF-7 cells stably expressing the cloned human Sigma-1 receptor; settings: for affinity for the Sigma-1 receptor in words: FIG. 6
# T1 construct: expressed in transfected cells
# T1 sequence (Q99720 whole entry): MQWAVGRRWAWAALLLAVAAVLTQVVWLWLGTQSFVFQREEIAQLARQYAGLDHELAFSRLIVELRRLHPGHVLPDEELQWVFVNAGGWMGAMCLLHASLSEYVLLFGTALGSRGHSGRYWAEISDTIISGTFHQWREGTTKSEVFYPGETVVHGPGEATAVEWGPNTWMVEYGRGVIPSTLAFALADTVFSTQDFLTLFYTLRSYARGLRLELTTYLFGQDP
# [3] = tested on: tMCAO induced brain injury; assay: transient middle cerebral artery occlusion (tMCAO) ischemic stroke model, infarct volume by triphenyltetrazolium staining; type: in vivo, rat; settings: 0.05 mg/kg acute, immediately after induction of 60 minute occlusion, ovariectomized female Sprague-Dawley rats, assessed 24 hrs after the stroke
# [4] = tested on: stroke (ICD-9 433, 434, 435)
# [5] = tested on: NMDA receptors; settings: cited from earlier work
# [6] = tested on: ferric chloride-induced lipid peroxidation in rat brain membranes; assay: ferric chloride-induced lipid peroxidation in rat brain membranes (antioxidant activity); type: biochemical; settings: even very high concentrations
# Method: […]. Antioxidant activity was measured by the ability of compounds to prevent ferric chloride-induced lipid peroxidation in rat brain membranes. The antioxidant ZYC5 is a known antioxidant control. […]. In summary, in vitro protection against glutamate-induced oxidative stress in HT-22 cells is mediated by antagonism of Sigma-1 receptors.
# [7] = Table 2, receptor target screen
# [8] = read-out: Potency (EC50 ± SEM), Table 2, receptor target screen
# [9] = protection against oxidative stress induced by 20 mM glutamate, Table 1
# [10] = Mus musculus, HT-22, read-out: Potency (EC50 ± SEM, nM)
# [11] = read-out: Potency (EC50 ± SEM nM), Table 4
# [12] = read-out: Potency (EC50 ± SEM), Table 5
# [13] = Table 4, read-out: Affinity for the cloned Sigma-1 receptor (Ki ± SEM)
# [14] = patients with CABG in 1997, N = 11,444
SMILES,"Efficacy ± SEM [1, 7]","Efficacy ± SEM [1, 9]","EC50 [1, 10]",Efficacy ± SEM ([1]; Table 4),"in vitro protection in words ([1]; FIGS. 2, 3 and 6)",further results
OC1(c2ccc(Cl)cc2)CCN(Cc2c[nH]c3ccccc23)CC1 [L741626],0,–,–,–,–,"EC50 [1, 8]: > 1000 nM"
Cc1nc2n(c(=O)c1CCN1CCC(c3noc4cc(F)ccc34)CC1)CCCC2 [Risperidone],–,0,–,–,–,–
"O=C(CCCN1CCC(O)(c2cccc(C(F)(F)F)c2)CC1)c1ccc(F)cc1 [Trifluperidol, 1-(4-fluorophenyl)-4-[4-hydroxy-4-[3-(trifluoromethyl)phenyl]-1-piperidyl]-butan-1-one]",–,–,7.5 ± 6.3 nM,–,–,Efficacy ± SEM [1]: 55 ± 3.0; in vitro protection in words [1]: high potency protection; affinity for the Sigma-1 receptor in words [2]: high affinity
CN(C)CCCN1c2ccccc2Sc2ccc(Cl)cc21 [Chlorpromazine],–,0,> 1000 nM,–,–,–
CN1CCN(CCc2ccc(Cl)c(Cl)c2)CC1 [BD1063],61 ± 7.5,–,–,61 ± 7.5,–,"Efficacy ± SEM ([1]; Table 5): 61 ± 7.5; EC50 [1, 11]: 5.9 ± 3.5 nM; EC50 [1, 8]: 5.9 ± 3.5 nM; EC50 [1, 12]: 5.9 ± 3.5 nM; Ki [2, 13]: 3.1 ± 1.4 nM; Ki ([2]; Table 5, own value, read-out: Affinity for the Sigma-1 receptor (Ki)): 3.1 nM"
CN(C)CC/C=C1/c2ccccc2Sc2ccc(Cl)cc21 [Chlorprothixene],–,0,> 1000 nM,–,–,–
CCN1CCC[C@H]1CNC(=O)c1c(O)c(Cl)cc(Cl)c1OC [S-(−)-Raclopride],0,0,> 1000 nM,–,no neuroprotection,"EC50 [1, 8]: > 1000 nM"
"O=C(CCCN1CCC(O)(c2ccc(Cl)cc2)CC1)c1ccc(Cl)cc1 [Chlorohaloperidol, 1-(4-chlorophenyl)-4-[4-(4-chlorophenyl)-4-hydroxy-1-piperidyl]-butan-1-one]",–,–,4.3 ± 1.7 nM,64 ± 3.4,high potency protection,Ki [2]: 1.5 ± 0.36 nM; affinity for the Sigma-1 receptor in words [2]: high affinity
"O=C(CCCN1CCC(O)(c2ccc(Cl)cc2)CC1)c1ccc(F)cc1 [Haloperidol, 4-[4-(4-chlorophenyl)-4-hydroxy-1-piperidyl]-1-(4-fluorophenyl)-butan-1-one]",–,65 ± 2.5,–,65 ± 2.5,strong neuroprotection; also recorded: high potency protection,"reduction in infarct volume [3]: 50%; B (logistic regression coefficient for stroke) ([4]; full model N = 145,576): −0.464; B (logistic regression coefficient for stroke) [4, 14]: −0.926; decrease of risk of stroke ([4]; patients with CABG surgery in 1997, significant only at the 0.07 level): about 60%; affinity of NMDA receptors for haloperidol [5]: > 1 µM; antioxidant activity (prevention of lipid peroxidation) [6]: failed to prevent ferric chloride-induced peroxidation of brain lipids"
"O=C(CCCN1CCC(O)(c2ccc(Br)cc2)CC1)c1ccc(F)cc1 [Bromperidol, 4-[4-(4-bromophenyl)-4-hydroxy-1-piperidyl]-1-(4-fluorophenyl)-butan-1-one]",–,–,0.95 ± 0.82 nM,67 ± 9.8,high potency protection,"affinity for the Sigma-1 receptor in words [2]: high affinity; Ki [2, 13]: 1.2 ± 0.21 nM"
CC(=O)CC(c1ccccc1)c1c(O)c2ccccc2oc1=O (centres unmarked) [Coumadin],–,–,–,–,–,"B (logistic regression coefficient for stroke) ([4]; full model N = 145,576): 1.018; Odds Ratio for stroke ([4]; full model N = 145,576): 2.769; times more likely to have a stroke during the year ([4]; general model): about 2.7 times; B (logistic regression coefficient for stroke) [4, 14]: 0.849; Odds Ratio for stroke [4, 14]: 2.337"
"Clc1ccc(N2CCN(Cc3c[nH]c4ncccc34)CC2)cc1 [L745870, 3-((4-(4-Chlorophenyl)piperazin-1-yl)-methyl)-1H-pyrrolo-2,3-b-pyridine]",–,–,–,–,–,Efficacy ± SEM [1]: 50 ± 9.6; EC50 ([1]; read-out: In vitro Protective Potency (EC50 ± SEM)): 895 ± 736 nM; EC50 ([1]; read-out: Potency (EC50 ± SEM nM)): 895 ± 736 nM; EC50 ([1]; read-out: Potency (EC50 ± SEM)): 895 ± 736 nM
OCCN1CCN(CCCN2c3ccccc3Sc3ccc(Cl)cc32)CC1 [Perphenazine],–,0,> 1000 nM,–,–,–
"O=C(CCCN1CCC2(CC1)C(=O)NCN2c1ccccc1)c1ccc(F)cc1 [Spiperone, 8-[4-(4-fluorophenyl)-4-oxo-butyl]-1-phenyl-1,3,8-triazaspiro[4.5]decan-4-one]",–,–,–,100,do not provide potent protection,"affinity for the Sigma-1 receptor in words [2]: nor do they have high affinity; Ki [2, 13]: 1050 ± 334 nM"
"O=C(CCCN1CCC(n2c(=O)[nH]c3ccccc32)CC1)c1ccc(F)cc1 [Benperidol, 1-[1-[4-(4-fluorophenyl)-4-oxo-butyl]-4-piperidyl]-3H-benzoimidazol-2-one]",–,–,1160 ± 498 nM,66 ± 23,do not provide potent protection,Ki [2]: 252 ± 42 nM; affinity for the Sigma-1 receptor in words [2]: nor do they have high affinity
OCCN1CCN(CCCN2c3ccccc3Sc3ccc(C(F)(F)F)cc32)CC1 [Flupenazine],–,0,–,–,–,"EC50 ([1]; read-out: Potency (EC50 ± SEM), protection against oxidative stress induced by 20 mM glutamate, Table 1): > 1000 nM"
Clc1ccc2c(c1)C(N1CCNCC1)=Nc1ccccc1O2 [Amoxapine],0,–,–,–,–,–
O=C(c1ccc(F)cc1)C1CCN(CCn2c(=O)[nH]c3ccccc3c2=O)CC1 [Ketanserin],0,–,> 1000 nM,–,–,–
CCC(Oc1ccc(Cl)cc1)C(=O)OC1CC2CCC(C1)N2C (centres unmarked) [SM-21],0,–,–,–,no protective effect,"EC50 [1, 8]: > 1000 nM; EC50 [1, 12]: > 1000 nM"
"OC1(c2ccc(Cl)c(C(F)(F)F)c2)CCN(CCCC(c2ccc(F)cc2)c2ccc(F)cc2)CC1 [Penfluridol, 1-[4,4-bis(4-fluorophenyl)butyl]-4-[4-chloro-3-(trifluoromethyl)phenyl]-piperidin-4-ol]",–,–,–,80 ± 20,moderate protective potency,"EC50 [1, 11]: 350 ± 246 nM; affinity for the Sigma-1 receptor in words [2]: moderate affinity; Ki [2, 13]: 53 ± 15 nM"
"Cc1c(C2CCN(CCc3ccccc3)CC2)noc1-c1ccc(Cl)cc1 [L741742, 5-(4-Chlorophenyl)-4-methyl-3-(l-(2-phenylethyl)piperidin-4-yl)isoxazole]",61 ± 2.7,–,–,61 ± 2.7,–,"EC50 ([1]; read-out: In vitro Protective Potency (EC50 ± SEM), Table 3): 1.2 ± 0.82 nM; EC50 [1, 11]: 1.2 ± 0.82 nM; EC50 [1, 8]: 1.2 ± 0.82 nM; Ki [2, 13]: 4.8 ± 0.41 nM"
Cc1cccc(C(=O)NCN2CCN(c3ccccc3C#N)CC2)c1 [PD168077],0,–,–,–,–,"EC50 [1, 8]: > 1000 nM"
"O=C(CCCN1CC=C(n2c(=O)[nH]c3ccccc32)CC1)c1ccc(F)cc1 [Droperidol, 1-[1-[4-(4-fluorophenyl)-4-oxo-butyl]-3,6-dihydro-2H-pyridin-4-yl]-3H-benzoimidazol-2-one]",–,–,5270 ± 2230 nM,100,do not provide potent protection,–
CN1CCN2c3ncccc3Cc3ccccc3C2C1 (centres unmarked) [Mirtazapine],0,–,> 1000 nM,–,–,–
O=C(OCCN1CCOCC1)C1(c2ccccc2)CCCCC1 [PRE-084],0,–,–,–,–,"EC50 [1, 8]: > 1000 nM; EC50 [1, 12]: > 1000 nM"
OC(CCCN1CCC(O)(c2ccc(Cl)cc2)CC1)c1ccc(F)cc1 (centres unmarked),–,–,–,58 ± 5.6,high potency protection,"EC50 [1, 11]: 12.9 ± 12.2 nM; affinity for the Sigma-1 receptor in words [2]: high affinity"
O=c1[nH]c2ccccc2n1C1CCN(CCCC(c2ccc(F)cc2)c2ccc(F)cc2)CC1 [Pimozide],0,–,> 1000 nM,–,–,"EC50 ([1]; Mus musculus, HT-22, read-out: In vitro Protective Potency (EC50 ± SEM, nM)): > 1000 nM"
CN1CCN(C2=Nc3ccccc3Oc3ccc(Cl)cc32)CC1 [Loxapine],–,0,> 1000 nM,–,–,–
CN1CCN(C2=Nc3cc(Cl)ccc3Nc3ccccc32)CC1 [Clozapine],–,0,–,–,–,–
CSc1ccc2c(c1)N(CCC1CCCCN1C)c1ccccc1S2 (centres unmarked) [Thioridazine],–,0,–,–,–,–
